From patent publication US20020192736A1, “Assay of peroxidase activity” (Pierce Chemical Company, priority 2001, published 2002)
Where “and” joins values, the source holds several entries; their conditions need not be identical. Equal values may be shown once. Read-outs that look alike come from different tables or passages of the source.

Key:
B-HRP = molecular target: T1, B-HRP (Armoracia rusticana, UniProt P00433); assay: Dot blot assay with B-HRP, film densitometry; settings: for Net Relative Intensity at 0.98 pg B-HRP / Net Relative Intensity at 3.9 pg B-HRP / Net Relative Intensity at 62.5 pg B-HRP / Net Relative Intensity at 250 pg B-HRP: […] Azine Enhancer, 5 mM Sodium Luminol
T1 sequence (P00433 31-338): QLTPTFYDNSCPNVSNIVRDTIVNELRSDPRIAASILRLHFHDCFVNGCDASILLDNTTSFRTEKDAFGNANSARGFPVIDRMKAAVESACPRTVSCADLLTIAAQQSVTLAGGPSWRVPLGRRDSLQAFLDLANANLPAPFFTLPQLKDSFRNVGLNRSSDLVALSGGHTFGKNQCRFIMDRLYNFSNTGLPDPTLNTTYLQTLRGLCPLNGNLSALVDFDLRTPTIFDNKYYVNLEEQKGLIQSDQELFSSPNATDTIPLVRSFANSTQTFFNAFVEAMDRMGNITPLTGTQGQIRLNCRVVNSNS

[1] = molecular target: horseradish peroxidase labeled streptavidin (SA-HRP) (Armoracia rusticana, UniProt P00433); assay: Dot blot assay on nitrocellulose membrane, film densitometry (relative intensity); assay type: biochemical
Chain of horseradish peroxidase labeled streptavidin (SA-HRP) (P22629 25-183 partner, one chain of several): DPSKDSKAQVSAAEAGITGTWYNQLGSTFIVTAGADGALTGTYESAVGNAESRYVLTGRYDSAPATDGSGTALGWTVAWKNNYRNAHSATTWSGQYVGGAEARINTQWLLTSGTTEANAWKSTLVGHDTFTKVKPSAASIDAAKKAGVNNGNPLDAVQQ

oxidized peroxidase = assay: Poisoning of the chemiluminescent system; assay type: biochemical; settings: azine with hydrogen atom bonded to the ring nitrogen
Procedure: The contaminant has been identified as a reducing azine species wherein the azine is capable of donating an electron or otherwise reacting with oxidized peroxidase (or peroxidase equivalent). […] This characterization has been made both by theoretic analysis, chemical analysis to determine the presence of the 10=H species, and by reconstruction experiments wherein the “poisoning azine” was added to highly purified azine compositions in order to quantitate the poisoning effects, and to establish the preferred purity of the azine enhancers. […] Concentrations or absolute amounts of a target analyte, which are one-tenth the minimum detectable by other systems can be detected in preferred systems of the invention. […]
This species is a non-enhancing oxidized species of […]. […] If a thiazine with a hydrogen in the 10-yl position is proven to be a non-poisoning species (by its inability to readily react with oxidized peroxidase at room temperature), its presence in or absence from the solution is inconsequential. […] By describing these compounds as inert or not readily reactive with oxidized peroxidase, the basis for the consideration of these terms is visible effects upon luminescence in a peroxidase system. […]

[2] = 50 μM Azine Enhancer, 1 mM Sodium Luminol
[3] = […] Azine Enhancer, 5 mM Sodium Luminol
[4] = 20 pg SA-HRP, enhancer concentrations as in row ([…] 1c; 52 μM 1c; 52 μM 1b; 13.5 μM 3)
[5] = 30 minute reexposure, working solutions: […] 1c, 52 μM 1c, 52 μM 1b, 13.5 μM 3, 52 μM 1b + 13.5 μM 3

2-chloro-10 (3 trimethyl amino propyl)-phenothiazonan bromide [Azine Enhancer 1d]
Net Relative Intensity at 0.98 pg B-HRP (B-HRP): 0 | Net Relative Intensity at 3.9 pg B-HRP (B-HRP): 0 | Net Relative Intensity at 62.5 pg B-HRP (B-HRP): 1.70 | Net Relative Intensity at 250 pg B-HRP (B-HRP): 15.63 | Net Relative Intensity at 1000 pg SA-HRP [1]: 1,106,656 and 1,538,600

CN1c2ccccc2Sc2ccccc21 [Azine Enhancer 1b, N-Methylphenothiazine]
Net Relative Intensity at 10 pg SA-HRP [1]: 0 | Net Relative Intensity at 100 pg SA-HRP [1]: 0 | Relative Intensity 2 pg SA-HRP [1]: 0 | Relative Intensity 5 pg SA-HRP [1]: 0 | Relative Intensity 20 pg SA-HRP [1]: 573,864 | Relative Intensity 1 minute [1]: 457,800 | Relative Intensity 5 minutes [1]: 628,408 | Relative Intensity 30 minutes [1]: 573,864 | Relative Intensity 1 hours [1]: 502,376 | Relative Intensity 24 hours [1]: 0

O=C(O)CCCN1c2ccccc2Sc2ccccc21 [Azine Enhancer 1e]
Net Relative Intensity at 10 pg SA-HRP [1, 2]: 1,416,056 | Net Relative Intensity at 100 pg SA-HRP [1, 2]: 4,351,240 | Net Relative Intensity at 1000 pg SA-HRP [1, 2]: 9,599,880 | Net Relative Intensity at 10 pg SA-HRP [1, 3]: 432,352 | Net Relative Intensity at 100 pg SA-HRP [1, 3]: 3,021,440 | Net Relative Intensity at 1000 pg SA-HRP [1, 3]: 8,706,320

O=S(=O)([O-])CCCCN1c2ccccc2Sc2ccccc21.[Na+] [Azine Enhancer 1f]
Net Relative Intensity at 0.98 pg B-HRP (B-HRP): 12.05 | Net Relative Intensity at 3.9 pg B-HRP (B-HRP): 28.77 | Net Relative Intensity at 62.5 pg B-HRP (B-HRP): 91.44 | Net Relative Intensity at 250 pg B-HRP (B-HRP): 151.53

CC(CN1c2ccccc2Sc2ccccc21)C[N+](C)(C)C.[Cl-] (stereo not drawn) [Azine Enhancer 1g]
Net Relative Intensity at 0.98 pg B-HRP (B-HRP): 0 | Net Relative Intensity at 3.9 pg B-HRP (B-HRP): 0 | Net Relative Intensity at 62.5 pg B-HRP (B-HRP): 2.16 | Net Relative Intensity at 250 pg B-HRP (B-HRP): 17.92

O=S(=O)([O-])CCCCN1c2ccccc2Sc2ccc(Cl)cc21.[Na+] [Azine Enhancer 1h]
Net Relative Intensity at 0.98 pg B-HRP (B-HRP): 0.20 | Net Relative Intensity at 3.9 pg B-HRP (B-HRP): 0.55 | Net Relative Intensity at 62.5 pg B-HRP (B-HRP): 44.09 | Net Relative Intensity at 250 pg B-HRP (B-HRP): 75.58

c1ccc2c(c1)Nc1ccccc1S2 [Azine Poison 1a, phenothiazine]
Background RI at 0 pg of B-HRP (B-HRP): 7.74 and 6.15 and 6.01 and 7.24 | Relative Intensity at 250 pg of B-HRP (B-HRP): 180.38 and 209.39 and 165.28

O=C1C=CC(=Nc2ccc(O)cc2)C=C1 [Phenolic Enhancer 3, Phenolindophenol/indophenol]
Relative Intensity 1 minute [1, 4]: 747,888 | Relative Intensity 5 minutes [1, 4]: 707,432 | Relative Intensity 30 minutes [1, 4]: 598,082 | Relative Intensity 1 hours [1, 4]: 492,016 | Relative Intensity 2 hours [1, 4]: 274,888 | Relative Intensity 24 hours [1, 4]: 0 | Relative Intensity 2 pg SA-HRP [1, 5]: 0 | Relative Intensity 5 pg SA-HRP [1, 5]: 106,776 | Relative Intensity 20 pg SA-HRP [1, 5]: 598,072

[O-][O+]1c2ccccc2Nc2ccccc21 [phenoxazine-5-oxide]
poisoning of the chemiluminescent system (oxidized peroxidase): does not poison the system
